One compound from patent US20170065517A1, “COMPOSITIONS FOR […] AGENTS ACROSS THE ORAL MUCOSA AND METHODS OF USE THEREOF” (PARATEK PHARMACEUTICALS, INC., priority 2004, published 2017) can be followed below.

The data set in a line: Zolpidem membrane assay (lipid-coated dodecane membrane between donor and acceptor cell). The format is in vitro ADME. The conditions noted are these: zolpidem tartrate solutions. The procedure:
Topics Med. Chem., 1:277-351 (2001). This assay uses a lipid-coated membrane to predict lipid mucosal membrane penetration. The membrane apparatus consists of a dodecane membrane sandwiched between a donor and acceptor cell. The lipid-coated membrane is less porous then the mucous membrane of the oral cavity. Thus, the enhancement seen in the membrane assay is very likely to be magnified in vivo.
Membrane assays were performed using zolpidem tartrate solutions at a pH of 5.8, 6.8, and 7.8. The alkaline pH values of 7.8 were adjusted using freshly prepared 0.01 M sodium bicarbonate/sodium carbonate buffer solution. The acidic pH of 5.8 was achieved using a 0.01 M acetate buffer solution (a mixture of sodium acetate and acetic acid). The neutral pH of 6.8 was achieved by adding 0.01 M acetate solution to the sodium bicarbonate/sodium carbonate buffer solution. Permeation through the membrane was measured by determining the concentration of zolpidem in the acceptor cell and is expressed as Pc (effective permeability in centimeters per second).

As for `Cc1ccc(-c2nc3ccc(C)cn3c2CC(=O)N(C)C)cc1` [zolpidem], the “increase of effective permeability (Pc)” value by setting is: (pH 7.8 relative to pH 5.8) 129%; (pH 7.8 relative to pH 6.8) “more than 53%”.
